What all share (assay): NCI-60 cell line screen, 48 h
Test [1] deals with 786-0 renal.
Test [2] deals with A498 renal.
The test system of test [3] is CAKI-1 renal.
Test [4] relates to CCRF-CEM leukemia.
Test [5] concerns DU-145 prostate.
In test [6] the test system is HCT-116 colon.
Test [7] deals with MOLT-4 leukemia.
For test [8], the system named is SW-620 colon.
Test [9] deals with TK-10 renal.
Test [10] concerns UACC-257 melanoma.

SMILES strings stand for the structures. Several values for one entry are separate records, joined by “and”; a condition that tells them apart may be missing. Identical values can stand only once.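 96-well plates; 48 h exposure; 5 concentrations. Endpoints by linear interpolation between flanking doses. Not reached: highest tested concentration assigned. GI50: concentration for 50% inhibition of growth. At the TGI there is no net growth.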

Turning to `COc1ccc(/C=C\c2cc(OC)c(OC)c(OC)c2)cc1NC(=O)[C@@H](N)CO`, the GI50 in [1] is 0.0188 µM; in test [2] it was less than 0.01 µM; in [3], less than 0.01 µM; in [4] it was 0.0263 µM; in test [5] it was 0.0288 µM; in [6], 0.0176 µM. Further, the GI50 in test [7] is 0.0432 µM; in test [8] it was 0.027 µM; in test [9], 19.3 µM; in [10], 27.1 µM. Also, the TGI in test [1] was greater than 40.3 µM; in [2] it was less than 0.0158 µM; in test [3] it was greater than 100 µM; in [4], greater than 100 µM; in test [5], greater than 100 µM; in test [6], greater than 100 µM. Further, the TGI in test [7], in test [8], in test [9] and in [10] was greater than 100 µM each time.

With `COc1ccc(/C=C(\C#N)n2nnc3cc(Cl)ccc32)cc1`, the GI50 in test [1] was 0.709 µM; in test [2] it was 0.201 µM; in test [3], 0.461 µM; in [4] it was 0.431 µM; in test [5] it was 1.71 µM; in test [6], 0.412 µM. Also, the GI50 in test [7] is 1.09 µM; in test [8], 0.351 µM; in [9], 1.65 µM; in [10], 2.4 µM. Besides, the TGI in test [1] is 8.61 µM; in test [2] it was 3.11 µM; in [3] it was greater than 100 µM; in test [4], greater than 100 µM; in test [5], 7.58 µM; in [6] it was 26.2 µM. In addition, the TGI in test [7] is greater than 100 µM; in test [8], greater than 100 µM; in [9] it was 11.5 µM; in test [10], greater than 100 µM.

As to `C=C1C(=O)OC2C1C(OC(=O)/C(C)=C/C)CC(O)(CCl)C1C(OC(C)=O)C=C(C)C21O` (configuration not stated), the TGI in test [1] is 32.9 µM; in test [2], greater than 53.6 µM; in [3], 17.7 µM; in [4] it was 17.6 µM; in test [5], 29 µM; in [6], 20.8 µM. The TGI was 21.1 µM in test [7], 14 µM in [8], 27.3 µM in test [9] and 34.1 µM in [10].

Turning to `CCN(Cc1ccc(F)cc1F)c1ccc(CO)c(Cl)c1`, the GI50 was 5.91 µM in [1]; 0.0316 µM in [2]; 5.11 µM in test [3]; 23.9 µM in test [4]; 20.1 µM in test [5]; 0.0861 µM in test [6]. Further, the GI50 in test [7] was 19.7 µM; in test [8], 0.917 µM; in test [9], 0.0434 µM; in [10] it was 0.128 µM. Moreover, the TGI in [1] was 29 µM; in test [2], 0.136 µM; in test [3] it was greater than 54.1 µM; in [4] it was greater than 88.5 µM; in [5], greater than 70.9 µM; in [6], 12.5 µM. Further, the TGI was greater than 71.5 µM in test [7], greater than 45.6 µM in test [8], 0.245 µM in test [9] and 0.372 µM in test [10].

Consider `CC(=O)C(C(=N)C#N)C(=O)Nc1ccccc1` (configuration not stated), for which the TGI in test [1], in [2], in test [3], in test [4], in test [5] and in test [6] was greater than 100 µM throughout. Besides, the TGI in test [7], in [8], in test [9] and in test [10] was greater than 100 µM throughout.

For `COc1cccc(-c2nc(-c3ccc(NS(=O)(=O)c4ccccc4)cc3)[nH]c2-c2ccnc(Br)c2)c1`, the GI50 was 2.98 µM in test [1]; 1.25 µM in test [2]; 1.75 µM in test [3]; 3.14 µM in test [4]; 3.69 µM in test [5]; 2.09 µM in test [6]. Besides, the GI50 in test [7] was 2.74 µM; in test [8], 2.83 µM; in test [9] it was 3.72 µM; in [10], 3.11 µM. The TGI in test [1] was greater than 100 µM; in test [2], 5.03 µM; in [3], 5.63 µM; in test [4], greater than 100 µM; in test [5] it was greater than 100 µM; in test [6], 5.46 µM. Moreover, the TGI in [7] is greater than 100 µM; in test [8], greater than 100 µM; in [9], greater than 100 µM; in test [10], 30.3 µM.

Regarding `COc1ccc(C(=O)c2cc(OC)c(OC)c(OC)c2)cc1/C=C/C(=O)c1ccc(O)cc1`, the GI50 in [1] is 1.66 µM; in test [2], 3.14 µM; in [3], 3.07 µM; in test [4] it was 0.872 µM; in [5], 1.88 µM; in [6], 1.58 µM. In addition, the GI50 in [7] was 0.841 µM; in [8], 2.51 µM; in test [9] it was 11.8 µM; in test [10], 7.77 µM. Besides, the TGI in test [1] is 3.74 µM; in test [2], 15.1 µM; in test [3], 17.3 µM; in test [4], greater than 100 µM; in [5], 3.45 µM; in test [6], 3.33 µM. Moreover, the TGI in [7] was greater than 100 µM; in test [8] it was 10.2 µM; in [9], 28.5 µM; in test [10] it was 26.6 µM.

Consider `CC1/C=C/C=C/CC/C=C/C=C/C=C/C=C/C(OC2OC(C)C(O)C(N)C2O)CC2OC(CC(O)C(O)CCC(O)CC(O)CC(O)CC(=O)OC(C)C(C)C1O)CC(O)C2C(=O)O` (configuration not stated), for which the GI50 was 25.8 µg/mL in test [1]; 25.8 µg/mL in test [2]; 23.5 µg/mL in test [3]; 32.3 µg/mL in [5]; 37.7 µg/mL in test [6]; 25.4 µg/mL in test [8]. The GI50 in test [9] is 28.3 µg/mL; in test [10] it was 28.9 µg/mL. The TGI in [1] is 31.3 µM and 50.1 µg/mL; in test [2], 33.2 µM and 46.5 µg/mL; in [3] it was 31.8 µM and 44.5 µg/mL; in test [4], 59.4 µM; in test [5], 32.4 µM and 73.5 µg/mL; in test [6] it was 32.1 µM and 112 µg/mL. In addition, the TGI in [7] was 38.2 µM; in test [8], 42.2 µM and 46 µg/mL; in [9], 32.5 µM and 53.6 µg/mL; in test [10] it was 32.7 µM and 53.8 µg/mL.

With `C=C(CN1CCc2ccccc2C1)c1ccc(/C=C/C(=O)Nc2ccccc2N)cc1`, the GI50 in test [1] was 3.81 µM; in [2], 16.4 µM; in [3] it was 2.21 µM; in [4] it was 1.04 µM; in test [5], 5.98 µM; in test [6], 1.59 µM. In addition, the GI50 was 3.18 µM in [7], 5.07 µM in test [8], 3.88 µM in test [9] and 1.3 µM in test [10]. Also, the TGI is 24.4 µM in test [1]; 36.8 µM in [2]; 94.5 µM in test [3]; greater than 100 µM in [4]; greater than 100 µM in test [5]; 5.7 µM in test [6]. For the same compound, the TGI is greater than 100 µM in test [7], greater than 100 µM in test [8], 26.9 µM in test [9] and 28 µM in test [10].

On to `c1ccc(Oc2c3ccccc3nc3ccccc23)cc1`, for which the GI50 in test [1] was 3.08 µM; in test [2] it was 4.49 µM; in test [3], 6.07 µM; in test [4] it was 1.12 µM; in test [5], 3.72 µM; in [6] it was 0.714 µM. For the same compound, the GI50 in [7] is 0.82 µM; in test [8], 1.64 µM; in test [10] it was 9.59 µM. For the same compound, the TGI in [1] was 10.7 µM; in test [2], 25.8 µM; in [3], 19.5 µM; in [4], greater than 100 µM; in test [5], 11.2 µM; in [6], 3.13 µM. Besides, the TGI in test [7] amounted to 48 µM; in test [8], 17.5 µM; in test [10], 26.3 µM.

Turning to `CC(C)SC1SCC2C(=O)N(C)C3(CC3C)C(=O)OCC(NC(=O)c3nc4ccccc4cc3O)C(=O)NC(C)C(=O)N(C)C1C(=O)N(C)C1(CC1C)C(=O)OCC(NC(=O)c1nc3ccccc3cc1O)C(=O)NC(C)C(=O)N2C` (configuration not stated), the TGI in test [1] was less than 0.0001 µM; in test [2], less than 0.0001 µM; in test [3], 0.00028 µM; in test [4], less than 0.0001 µM; in test [5], greater than 100 µM; in test [6] it was greater than 100 µM. Further, the TGI in test [7], in test [9] and in test [10] was less than 0.0001 µM throughout.

`O=C1c2cccnc2-c2nc(-c3ccccn3)cc3c2c1nc1ccccc13`: the GI50 in [1] is 0.0825 µM; in test [2], 0.481 µM; in [3], 0.119 µM; in [4], 0.0619 µM; in test [5], 0.156 µM; in [6], 0.0885 µM. The GI50 in test [7] was 0.211 µM; in test [9], 0.296 µM; in [10], 0.533 µM. For the same compound, the TGI worked out at 0.26 µM in test [1]; 1.5 µM in test [2]; 0.781 µM in test [3]; 0.57 µM in test [5]; 0.332 µM in test [6]; 4.09 µM in test [7]. For the same compound, the values for the TGI in [9] and in test [10] were 1.11 µM and 1.97 µM, respectively.

(Values after PubChem BioAssay (NCI).)
